From patent US20250304630A1, “POLYPEPTIDES HAVING OSMOPROTECTIVE ACTIVITY, COMPOSITIONS THEREOF AND USES THEREOF” (DELAVIE SCIENCES, LLC, priority 2022, published 2025)
Marks after values point to notes of the source that are not given here. One block for each compound: values may come before it.

What was measured:
[1] = HORAC assay (OxiSelect HORAC Assay), loss of FITC fluorescence; format: biochemical
Protocol: (§1) This assay procedure was used to screen materials for antioxidant properties using non-cell-based methods. Dilutions of HSP tested were 10%, 5%, 1%, 0.5%, 0.1%, 0.05%, and 0.01%.
(§2) Fluorescein (FITC) is normally a highly fluorescent molecule, yet when fluorescein is oxidized by either peroxyl radicals or hydroxyl radicals, it loses its fluorescence. Thus, when FITC is incubated in the presence of 2,2′-azobis(2-amidino-propane) dihydrochloride (AAPH, a peroxyl radical generating compound), or a combination of hydrogen peroxide and cobalt (a hydroxyl radical generating system based on the Fenton-type reaction), there will be a time dependent loss of FITC fluorescence. However, if a material with antioxidant properties is present during the incubation, the loss of fluorescence will be delayed as some of the peroxyl or hydroxyl radicals react with the antioxidant material instead of the FITC. Under these conditions, the delay or prevention in fluorescence decay will be in proportion to the antioxidant capacity of the test material.
The HORAC assay was performed as specified by the manufacturer of the kit. For the assay, the test materials were prepared in Assay Buffer at 10× their final desired concentrations. Caffeic acid was used as the positive control for this assay. To start the assay, 20 μl of the test material or positive control were added to the wells of a 96-well plate. All of the samples were prepared in triplicate. Next, 140 μl of an FITC solution was added to each well and the plate was incubated for 30 minutes in the dark. After this incubation, 20 μl of a hydrogen peroxide solution (Hydroxyl Radical Initiator) was added to each well, followed by the addition of 20 μl of a cobalt solution (Fenton Reagent). The plate was mixed and then read using a Fluoroskan Ascent Fluorometer at 3-minute intervals for 60 minutes with an excitation wavelength of 480 nm and an emission wavelength of 518 nm.
(§3) The loss of FITC fluorescence can be graphed by plotting fluorescence intensity vs time for each of the samples to generate a fluorescence decay curve. The area under this curve (AUC) then represents the extent of FITC fluorescence loss over the course of the assay, and this measurement is then used as an index for the effectiveness of the antioxidant samples. The AUC for a sample can be calculated using the following equation: […]
(§4) Where RFUO is the initial fluorescence measurement of the sample at time 0, with each subsequent RFU measurement indicated by the respective increased numbers. The AUC measurements were then used to determine the percent inhibition for each concentration of the test material screened, followed by the determination of the IC50, the concentration of the material at which 50% of the FITC signal loss due to radical interaction is prevented.

[2] = Osmotic stress assay: keratinocytes pretreated, exposed to hypertonic NaCl media, viability by MTT; format: cell-based, human; settings: human, human adult epidermal keratinocytes, then 24 h with 0 mM added NaCl, MTT, % of untreated 0 mM NaCl control, mean +/- SD, read-out: Cell Viability
Protocol: (§5) This assay procedure was used to screen the recombinantly produced HSP for its ability to protect against osmotic stress, using cultured human keratinocytes as the testing model. The assay used changes in cell viability as the endpoint for measuring the protective effect.
(§6) For this study, human keratinocytes were pretreated for 24 hours with either HSP, a mild hypertonic solution of sorbitol (positive control), or left untreated (negative control). After the pretreatment, the cell culture media was replaced with media supplemented with NaCl at progressively increasing hypertonic concentrations. The cells were then incubated again for 24 hours. After the second incubation, cell viability was determined using an MTT assay.
(§7) The MTT assay is a colorimetric analysis of the metabolic activity of the cell, which is a reflection of cell viability. Viable cells can take up MTT, which is then reduced by mitochondria, resulting in the formation of insoluble purple formazin crystals. These crystals are then extracted from the cells with isopropanol and quantified spectrophotometrically. The intensity of the purple color is directly proportional to the number of viable cells.
(§8) Human adult epidermal keratinocytes were grown using EpiLife Media (60 µM calcium) supplemented with 0.2% v/v bovine pituitary extract, 1 μg/ml recombinant human insulin-like growth factor-1, 0.18 μg/ml hydrocortisone, 5 μg/ml bovine transferrin, 0.2 ng/ml human epidermal growth factor. When a sufficient number of cells had been grown, they were transferred to 96-well plates and cultured for a minimum of 24 hours to allow the cells to adhere to the well plates. The cells were then used when they were fully confluent.
(§9) The test materials and the sorbitol positive controls were prepared in fully supplemented EpiLife media. Supplemented EpiLife media alone served as the untreated control. These solutions were applied to the keratinocytes in the 96-well plates, after which the plates were incubated for 24 hours at 37±2° C. and 5±1% CO2.
(§10) After the pretreatment incubation, the cell culture media was removed from both of the 96-well plates and replaced with supplemented EpiLife media which had progressively increasing concentrations of additional NaCl added (0, 75, 100, 125 and 150 mM) to generate a series of increasingly hypertonic solutions. After the addition of the media/NaCl, the 96-well plates were incubated for an additional 24 hours.
(§11) After the second 24-hour incubation, the cell culture media was removed and the cells were washed once with phosphate buffered saline. After washing, 100 μl of keratinocyte cell culture media supplemented with MTT (0.5 mg/ml) was added to each well. The 96-well plates were returned to the incubator (37+2° C. and 5+1% CO2) for one hour. After the incubation the MTT solution was removed via aspiration and the cells were rinsed twice with phosphate buffered saline to remove any residual MTT on the outside of the cells and then 100 μl of isopropyl alcohol was added to the wells to extract the purple formazin crystals. The well plates were then read at 540 nm using isopropyl alcohol as a blank.
(§12) The mean MTT absorbance value for the untreated control cells not exposed to any osmotic stress (0 mM NaCl) was calculated and used to represent 100% cell viability. The individual MTT values from the cells undergoing the various treatments were then divided by the mean value for the negative control cells and expressed as a percentage to determine the change in cell viability caused by each treatment.

human keratinocytes = experiment: as above; format: cell-based; settings: for Cell Viability: MTT, % of untreated 0 mM NaCl control, mean +/- SD
Protocol: as §5, §6, §7, §8, §9, §10, §11, §12

[3] = ORAC assay, loss of FITC fluorescence with AAPH; format: biochemical
Protocol: as §1, §2
For the ORAC assay, the test materials were prepared in Assay Buffer at 10× their final desired concentrations. Trolox was used as the positive control for this assay. To start the assay, 20 μl of the test material or positive control were added to the wells of a 96-well plate. All of the samples were prepared in triplicate. Next, 160 μl of a 360 nM FITC solution was added to each well and the plate was incubated for 30 minutes in the dark. After this incubation, 20 μl of a 153 mM AAPH (peroxyl radical generator) was added to each well. The plate was mixed and then read using a Fluoroskan Ascent Fluorometer at 2.5-minute intervals for 60 minutes with an excitation wavelength of 480 nm and an emission wavelength of 518 nm.
as §3, §4

[4] = concentration at which 50% of the FITC signal loss is prevented

IC50 [1, 4]: IC50: 3.25 ug/ml
Compound: O=C(O)/C=C/c1ccc(O)c(O)c1 [Caffeic Acid, Caffeic acid, reference compound]
Percent Inhibition ([1]; concentration 0.625 ug/ml): 8.85%
Percent Inhibition ([1]; concentration 1.25 ug/ml): 14.56%
Percent Inhibition ([1]; concentration 2.5 ug/ml): 56.30%
Percent Inhibition ([1]; concentration 5 ug/ml): 68.86%
Percent Inhibition ([1]; concentration 10 ug/ml): 60.03%
Percent Inhibition ([1]; concentration 20 ug/ml): 62.58%

Compound: OC[C@@H](O)[C@@H](O)[C@H](O)[C@@H](O)CO [Sorbitol, sorbitol, reference compound]
viability at 24 h, 12.5 mM ([2]; 24 h pretreatment with 12.5 mM Sorbitol): 101%
viability at 24 h, 25 mM ([2]; 24 h pretreatment with 25 mM Sorbitol): 122%
Cell Viability (human keratinocytes; 24 h pretreatment with 12.5 mM Sorbitol, then 24 h with 75 mM added NaCl): 103.2 +/− 1.8%
Cell Viability (human keratinocytes; 24 h pretreatment with 12.5 mM Sorbitol, then 24 h with 100 mM added NaCl): 98.3 +/− 6.0* %
Cell Viability (human keratinocytes; 24 h pretreatment with 12.5 mM Sorbitol, then 24 h with 125 mM added NaCl): 73.2 +/− 13.3* %
Cell Viability (human keratinocytes; 24 h pretreatment with 12.5 mM Sorbitol, then 24 h with 150 mM added NaCl): 24.1 +/− 9.6%
Cell Viability (human keratinocytes; 24 h pretreatment with 25 mM Sorbitol, then 24 h with 75 mM added NaCl): 100.0 +/− 7.7%
Cell Viability (human keratinocytes; 24 h pretreatment with 25 mM Sorbitol, then 24 h with 100 mM added NaCl): 93.9 +/− 2.8* %
Cell Viability (human keratinocytes; 24 h pretreatment with 25 mM Sorbitol, then 24 h with 125 mM added NaCl): 69.5 +/− 9.7* %
Cell Viability (human keratinocytes; 24 h pretreatment with 25 mM Sorbitol, then 24 h with 150 mM added NaCl): 29.5 +/− 5.6%
cell viability versus untreated cell samples (human keratinocytes; at both 100 mM and 125 mM NaCl): significantly greater than the untreated cell samples
osmoprotective effect (human keratinocytes; highest concentration of added NaCl (150 mM)): neither HSP nor sorbitol (positive control) showed a significant osmoprotective effect
effect on the reduction in cell viability caused by the increase in hypertonicity (human keratinocytes; increasing added NaCl, overall statement): slow the reduction in cell viability

IC50 [3, 4]: IC50: 0.42 ug/ml
Compound: Cc1c(C)c2c(c(C)c1O)CCC(C)(C(=O)O)O2 (stereo not shown) [Trolox, reference compound]
Percent Inhibition ([3]; concentration 0.078125 ug/ml): 30.79%
Percent Inhibition ([3]; concentration 0.15625 ug/ml): 47.09%
Percent Inhibition ([3]; concentration 0.3125 ug/ml): 68.77%
Percent Inhibition ([3]; concentration 0.625 ug/ml): 83.84%
Percent Inhibition ([3]; concentration 1.25 ug/ml): 84.06%
Percent Inhibition ([3]; concentration 2.5 ug/ml): 87.4%
Percent Inhibition ([3]; concentration 5 ug/ml): 90.3%
